For 7 molecules, MIC results are on record in ChEMBL document CHEMBL1151939, “Potential scorpionate antibiotics: targeted hydrolysis of lipid II containing model membranes by vancomycin-TACzyme conjugates and modulation of their antibacterial activity by Zn-ions” (2009).

The structures appear in SMILES notation. Values after ≈ are worked out from the molar mass of the structure shown. Active and inactive are the calls of the source.

One may read the MIC as the smallest concentration in the dilution series that meets the test's criterion for growth inhibition.

Type in all cases: functional
Test [1] deals with Enterococcus. Put plainly: Antimicrobial activity against vancomycin-susceptible Enterococcus 15A797 by broth microdilution method in presence of ZnSo4 in medium. On the technique in general: Dilution methods test growth across graded concentrations, often in twofold steps.
The test system of test [2] is Enterococcus. Description: Antimicrobial activity against vancomycin-resistant Enterococcus 15A799 by broth microdilution method in presence of ZnSo4 in medium.
Test [3] concerns Enterococcus. Description: Antimicrobial activity against vancomycin-susceptible Enterococcus 15A797 by broth microdilution method.
Test [4] has as its system Enterococcus. Description: Antimicrobial activity against vancomycin-resistant Enterococcus 15A799 by broth microdilution method.

With `COC(=O)c1cc(OCCNC(=O)c2cc(OCc3cn(CCCNC(=O)CC[C@H](NC(=O)c4cc5cc(c4)CN(C(=O)[C@H](Cc4c[nH]cn4)NC(C)=O)CCCN(C(=O)[C@H](Cc4c[nH]cn4)NC(C)=O)CCCN(C(=O)[C@H](Cc4c[nH]cn4)NC(C)=O)C5)C(N)=O)nn3)cc(OCc3cn(CCCNC(=O)CC[C@H](NC(=O)c4cc5cc(c4)CN(C(=O)[C@H](Cc4c[nH]cn4)NC(C)=O)CCCN(C(=O)[C@H](Cc4c[nH]cn4)NC(C)=O)CCCN(C(=O)[C@H](Cc4c[nH]cn4)NC(C)=O)C5)C(N)=O)nn3)c2)cc(OCCNC(=O)c2cc(OCc3cn(CCCNC(=O)CC[C@@H](NC(=O)c4cc5cc(c4)CN(C(=O)[C@H](Cc4c[nH]cn4)NC(C)=O)CCCN(C(=O)[C@@H](Cc4c[nH]cn4)NC(C)=O)CCCN(C(=O)[C@H](Cc4c[nH]cn4)NC(C)=O)C5)C(N)=O)nn3)cc(OCc3cn(CCCNC(=O)CC[C@@H](NC(=O)c4cc5cc(c4)CN(C(=O)[C@H](Cc4c[nH]cn4)NC(C)=O)CCCN(C(=O)[C@@H](Cc4c[nH]cn4)NC(C)=O)CCCN(C(=O)[C@H](Cc4c[nH]cn4)NC(C)=O)C5)C(N)=O)nn3)c2)c1`, the MIC entry in test [1] and in test [2] was “inactive” in each case.

Turning to `CN[C@H](CC(C)C)C(=O)N[C@H]1C(=O)N[C@@H](CC(N)=O)C(=O)N[C@H]2C(=O)N[C@H]3C(=O)N[C@H](C(=O)N[C@H](C(=O)NCCCOCCOCCOCCCNC(=O)CCc4cn(CCCNC(=O)CC[C@H](NC(=O)c5cc6cc(c5)CN(C(=O)[C@@H](Cc5c[nH]cn5)NC(C)=O)CCCN(C(=O)[C@H](Cc5c[nH]cn5)NC(C)=O)CCCN(C(=O)[C@H](Cc5c[nH]cn5)NC(C)=O)C6)C(N)=O)nn4)c4cc(O)cc(O)c4-c4cc3ccc4O)[C@H](O)c3ccc(c(Cl)c3)Oc3cc2cc(c3O[C@@H]2O[C@H](CO)[C@@H](O)[C@H](O)[C@H]2O[C@H]2C[C@](C)(N)[C@H](O)[C@H](C)O2)Oc2ccc(cc2Cl)[C@H]1O`, the MIC worked out at 5.8 µM (≈ 16 µg/mL) in test [3], 2.9 µM in test [1] and 92.8 µM in test [2]. Besides, in test [4], the MIC result is “inactive”.

For the molecule `C#CCOc1cc(OCC#C)cc(C(=O)NCCOc2cc(OCCNC(=O)c3cc(OCC#C)cc(OCC#C)c3)cc(C(=O)NCCCOCCOCCOCCCNC(=O)[C@H]3NC(=O)[C@H]4NC(=O)[C@H](NC(=O)[C@@H]5NC(=O)[C@H](CC(N)=O)NC(=O)[C@H](NC(=O)[C@@H](CC(C)C)NC)[C@H](O)c6ccc(c(Cl)c6)Oc6cc5cc(c6O[C@@H]5O[C@H](CO)[C@@H](O)[C@H](O)[C@H]5O[C@H]5C[C@](C)(N)[C@H](O)[C@H](C)O5)Oc5ccc(cc5Cl)[C@H]4O)c4ccc(O)c(c4)-c4c(O)cc(O)cc43)c2)c1`, the values for the MIC in test [3] and in test [4] were 1.6 µM (≈ 3.68 µg/mL) and 3.2 µM (≈ 7.35 µg/mL), respectively.

As to `CC(=O)N[C@@H](Cc1c[nH]cn1)C(=O)N1CCCN(C(=O)[C@H](Cc2c[nH]cn2)NC(C)=O)Cc2cc(cc(C(=O)N[C@@H](CCC(=O)NCCCN=[N+]=[N-])C(N)=O)c2)CN(C(=O)[C@@H](Cc2c[nH]cn2)NC(C)=O)CCC1`, the MIC entry in test [1] and in test [2] was “inactive” each time.

Consider `CN[C@H](CC(C)C)C(=O)N[C@H]1C(=O)N[C@@H](CC(N)=O)C(=O)N[C@H]2C(=O)N[C@H]3C(=O)N[C@H](C(=O)N[C@H](C(=O)NCCCOCCOCCOCCNC(=O)c4cc(OCCNC(=O)c5cc(OCc6cn(CCCNC(=O)CC[C@H](NC(=O)c7cc8cc(c7)CN(C(=O)[C@@H](Cc7c[nH]cn7)NC(C)=O)CCCN(C(=O)[C@H](Cc7c[nH]cn7)NC(C)=O)CCCN(C(=O)[C@H](Cc7c[nH]cn7)NC(C)=O)C8)C(N)=O)nn6)cc(OCc6cn(CCCNC(=O)CC[C@H](NC(=O)c7cc8cc(c7)CN(C(=O)[C@@H](Cc7c[nH]cn7)NC(C)=O)CCCN(C(=O)[C@H](Cc7c[nH]cn7)NC(C)=O)CCCN(C(=O)[C@H](Cc7c[nH]cn7)NC(C)=O)C8)C(N)=O)nn6)c5)cc(OCCNC(=O)c5cc(OCc6cn(CCCNC(=O)CC[C@H](NC(=O)c7cc8cc(c7)CN(C(=O)[C@@H](Cc7c[nH]cn7)NC(C)=O)CCCN(C(=O)[C@H](Cc7c[nH]cn7)NC(C)=O)CCCN(C(=O)[C@H](Cc7c[nH]cn7)NC(C)=O)C8)C(N)=O)nn6)cc(OCc6cn(CCCNC(=O)CC[C@H](NC(=O)c7cc8cc(c7)CN(C(=O)[C@@H](Cc7c[nH]cn7)NC(C)=O)CCCN(C(=O)[C@H](Cc7c[nH]cn7)NC(C)=O)CCCN(C(=O)[C@H](Cc7c[nH]cn7)NC(C)=O)C8)C(N)=O)nn6)c5)c4)c4cc(O)cc(O)c4-c4cc3ccc4O)[C@H](O)c3ccc(c(Cl)c3)Oc3cc2cc(c3O[C@@H]2O[C@H](CO)[C@@H](O)[C@H](O)[C@H]2O[C@H]2C[C@](C)(N)[C@H](O)[C@H](C)O2)Oc2ccc(cc2Cl)[C@H]1O`, for which the MIC amounted to 40 µM (≈ 255 µg/mL) in test [3] and 5 µM in test [1]. The MIC result in test [4] and in test [2] was “inactive” each time.

`C#CCCC(=O)NCCCOCCOCCOCCCNC(=O)[C@H]1NC(=O)[C@H]2NC(=O)[C@H](NC(=O)[C@@H]3NC(=O)[C@H](CC(N)=O)NC(=O)[C@H](NC(=O)[C@@H](CC(C)C)NC)[C@H](O)c4ccc(c(Cl)c4)Oc4cc3cc(c4O[C@@H]3O[C@H](CO)[C@@H](O)[C@H](O)[C@H]3O[C@H]3C[C@](C)(N)[C@H](O)[C@H](C)O3)Oc3ccc(cc3Cl)[C@H]2O)c2ccc(O)c(c2)-c2c(O)cc(O)cc21` registered an MIC in test [3] of 1 µM (≈ 1.73 µg/mL). Besides, the MIC entry in test [4] was “inactive”.

As to `CN[C@H](CC(C)C)C(=O)N[C@H]1C(=O)N[C@@H](CC(N)=O)C(=O)N[C@H]2C(=O)N[C@H]3C(=O)N[C@H](C(=O)N[C@H](C(=O)O)c4cc(O)cc(O)c4-c4cc3ccc4O)[C@H](O)c3ccc(c(Cl)c3)Oc3cc2cc(c3O[C@@H]2O[C@H](CO)[C@@H](O)[C@H](O)[C@H]2O[C@H]2C[C@](C)(N)[C@H](O)[C@H](C)O2)Oc2ccc(cc2Cl)[C@H]1O` [VANCOMYCIN], the MIC is 0.3 µM (≈ 0.435 µg/mL) in test [3] and 86 µM (≈ 125 µg/mL) in test [4].
